How the values were obtained:
Type in all cases: in vivo
[1] = tested on: ivy-leaved morning glory (Ipomoea hederacea); assay: Test G Post-Emergence Protocol; details: Ipomoea, post-emergence, 312 h, read-out: Morningglory, Ivy-leaved damage rating; for pest or weed control at 15.625 g/ha: 15.625 g ai/ha, evaluated after 13 days (100=total damage to plant; 0=no damage to plant); for pest or weed control at 62.5 g/ha: 62.5 g ai/ha; for pest or weed control at 62.5 g/ha / pest or weed control at 250 g/ha: evaluated after 13 days, 100=total damage to plant, 0=no damage to plant; for pest or weed control at 250 g/ha: 250 g ai/ha
Outline: (§1)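 Eight days post-sowing, plants received a spray of test compound (acetone/water 50:50, 0.5% Tween 20) at 15.625, 62.5 or 250 g/ha. Glasshouse regime thereafter: 24/16 °C, 14 h light, 65% humidity. Assessment after 13 days on a 0–100 damage scale.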

[2] = tested on: barnyardgrass (Echinochloa crus-galli); assay: Test G Post-Emergence Protocol; details: Echinochloa crus-galli, post-emergence, 312 h, read-out: Barnyardgrass damage rating; for pest or weed control at 15.625 g/ha: 15.625 g ai/ha, evaluated after 13 days (100=total damage to plant; 0=no damage to plant); for pest or weed control at 62.5 g/ha: 62.5 g ai/ha; for pest or weed control at 62.5 g/ha / pest or weed control at 250 g/ha: evaluated after 13 days, 100=total damage to plant, 0=no damage to plant; for pest or weed control at 250 g/ha: 250 g ai/ha
Outline: as §1

[3] = tested on: giant foxtail (Setaria faberi); assay: Test G Post-Emergence Protocol; details: Setaria faberi, post-emergence, 312 h, read-out: Foxtail, Giant damage rating; for pest or weed control at 15.625 g/ha: 15.625 g ai/ha, evaluated after 13 days (100=total damage to plant; 0=no damage to plant); for pest or weed control at 62.5 g/ha: 62.5 g ai/ha; for pest or weed control at 62.5 g/ha / pest or weed control at 250 g/ha: evaluated after 13 days, 100=total damage to plant, 0=no damage to plant; for pest or weed control at 250 g/ha: 250 g ai/ha
Outline: as §1

[4] = tested on: velvetleaf (Abutilon theophrasti); assay: Test G Post-Emergence Protocol; details: Abutilon theophrasti, post-emergence, 312 h, read-out: Velvetleaf damage rating; for pest or weed control at 15.625 g/ha: 15.625 g ai/ha, evaluated after 13 days (100=total damage to plant; 0=no damage to plant); for pest or weed control at 62.5 g/ha: 62.5 g ai/ha; for pest or weed control at 62.5 g/ha / pest or weed control at 250 g/ha: evaluated after 13 days, 100=total damage to plant, 0=no damage to plant; for pest or weed control at 250 g/ha: 250 g ai/ha
Outline: as §1

corn (Zea mays) [5] = assay: Test G Post-Emergence Protocol; details: Zea mays, post-emergence, 312 h, read-out: Corn damage rating; for plant injury at 15.625 g/ha: 15.625 g ai/ha, evaluated after 13 days (100=total damage to plant; 0=no damage to plant); for plant injury at 62.5 g/ha: 62.5 g ai/ha; for plant injury at 62.5 g/ha / plant injury at 250 g/ha: evaluated after 13 days, 100=total damage to plant, 0=no damage to plant; for plant injury at 250 g/ha: 250 g ai/ha
Outline: as §1

[6] = tested on: redroot pigweed (Amaranthus retroflexus); assay: Test G Post-Emergence Protocol; details: Amaranthus retroflexus, post-emergence, 312 h, read-out: Pigweed, Redroot damage rating; for pest or weed control at 15.625 g/ha: 15.625 g ai/ha, evaluated after 13 days (100=total damage to plant; 0=no damage to plant); for pest or weed control at 62.5 g/ha: 62.5 g ai/ha; for pest or weed control at 62.5 g/ha / pest or weed control at 250 g/ha: evaluated after 13 days, 100=total damage to plant, 0=no damage to plant; for pest or weed control at 250 g/ha: 250 g ai/ha
Outline: as §1

[7] = tested on: ivy-leaved morning glory (Ipomoea hederacea); assay: Test G Pre-Emergence Protocol; details: Ipomoea, pre-emergence, 312 h, evaluated after 13 days; for pest or weed control at 15.625 g/ha: 15.625 g ai/ha; for pest or weed control at 15.625 g/ha / pest or weed control at 250 g/ha: read-out: Morningglory, Ivy-leaved damage rating (100=total damage to plant; 0=no damage to plant); for pest or weed control at 62.5 g/ha: 62.5 g ai/ha, 100=total damage to plant, 0=no damage to plant, read-out: Morningglory, Ivy-leaved damage rating; for pest or weed control at 250 g/ha: 250 g ai/ha
Outline: (§2)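 Spraying took place one day after sowing, at 15.625, 62.5 or 250 g/ha, using an acetone/water (50:50) spray solution containing 0.5% Tween 20. Plants were kept under glasshouse conditions (24/16 °C, 14 h light, 65% humidity, watered twice daily), and injury was rated 0–100 at day 13.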

[8] = tested on: barnyardgrass (Echinochloa crus-galli); assay: Test G Pre-Emergence Protocol; details: Echinochloa crus-galli, pre-emergence, 312 h, evaluated after 13 days; for pest or weed control at 15.625 g/ha: 15.625 g ai/ha; for pest or weed control at 15.625 g/ha / pest or weed control at 250 g/ha: read-out: Barnyardgrass damage rating (100=total damage to plant; 0=no damage to plant); for pest or weed control at 62.5 g/ha: 62.5 g ai/ha, 100=total damage to plant, 0=no damage to plant, read-out: Barnyardgrass damage rating; for pest or weed control at 250 g/ha: 250 g ai/ha
Outline: as §2

[9] = tested on: giant foxtail (Setaria faberi); assay: Test G Pre-Emergence Protocol; details: Setaria faberi, pre-emergence, 312 h, evaluated after 13 days; for pest or weed control at 15.625 g/ha: 15.625 g ai/ha; for pest or weed control at 15.625 g/ha / pest or weed control at 250 g/ha: read-out: Foxtail, Giant damage rating (100=total damage to plant; 0=no damage to plant); for pest or weed control at 62.5 g/ha: 62.5 g ai/ha, 100=total damage to plant, 0=no damage to plant, read-out: Foxtail, Giant damage rating; for pest or weed control at 250 g/ha: 250 g ai/ha
Outline: as §2

[10] = tested on: velvetleaf (Abutilon theophrasti); assay: Test G Pre-Emergence Protocol; details: Abutilon theophrasti, pre-emergence, 312 h, evaluated after 13 days; for pest or weed control at 15.625 g/ha: 15.625 g ai/ha; for pest or weed control at 15.625 g/ha / pest or weed control at 250 g/ha: read-out: Velvetleaf damage rating (100=total damage to plant; 0=no damage to plant); for pest or weed control at 62.5 g/ha: 62.5 g ai/ha, 100=total damage to plant, 0=no damage to plant, read-out: Velvetleaf damage rating; for pest or weed control at 250 g/ha: 250 g ai/ha
Outline: as §2

corn (Zea mays) [11] = assay: Test G Pre-Emergence Protocol; details: Zea mays, pre-emergence, 312 h, evaluated after 13 days; for plant injury at 15.625 g/ha: 15.625 g ai/ha; for plant injury at 15.625 g/ha / plant injury at 250 g/ha: read-out: Corn damage rating (100=total damage to plant; 0=no damage to plant); for plant injury at 62.5 g/ha: 62.5 g ai/ha, 100=total damage to plant, 0=no damage to plant, read-out: Corn damage rating; for plant injury at 250 g/ha: 250 g ai/ha
Outline: as §2

[12] = tested on: redroot pigweed (Amaranthus retroflexus); assay: Test G Pre-Emergence Protocol; details: Amaranthus retroflexus, pre-emergence, 312 h, evaluated after 13 days; for pest or weed control at 15.625 g/ha: 15.625 g ai/ha; for pest or weed control at 15.625 g/ha / pest or weed control at 250 g/ha: read-out: Pigweed, Redroot damage rating (100=total damage to plant; 0=no damage to plant); for pest or weed control at 62.5 g/ha: 62.5 g ai/ha, 100=total damage to plant, 0=no damage to plant, read-out: Pigweed, Redroot damage rating; for pest or weed control at 250 g/ha: 250 g ai/ha
Outline: as §2

Row | SMILES | pest or weed control at 15.625 g/ha [1] | pest or weed control at 62.5 g/ha [1] | pest or weed control at 250 g/ha [1] | pest or weed control at 15.625 g/ha [2] | pest or weed control at 62.5 g/ha [2] | pest or weed control at 250 g/ha [2] | pest or weed control at 15.625 g/ha [3] | pest or weed control at 62.5 g/ha [3] | pest or weed control at 250 g/ha [3] | pest or weed control at 15.625 g/ha [4] | pest or weed control at 62.5 g/ha [4] | pest or weed control at 250 g/ha [4] | plant injury at 15.625 g/ha (corn (Zea mays) [5]) | plant injury at 62.5 g/ha (corn (Zea mays) [5]) | plant injury at 250 g/ha (corn (Zea mays) [5]) | pest or weed control at 15.625 g/ha [6] | pest or weed control at 62.5 g/ha [6] | pest or weed control at 250 g/ha [6] | pest or weed control at 15.625 g/ha [7] | pest or weed control at 62.5 g/ha [7] | other results
1 | Cc1cc([C@H]2CN(C)C(=O)[C@@H]2C(=O)Nc2cccc(F)n2)cc(C(F)(F)F)c1 (racemic) [Compound 1801] | 0% | 10% | 50% | 20% | 60% | 70% | 70% | 80% | 80% | 0% | 0% | 0% | 10% | 70% | 80% | 0% | 0% | 40% | 0% | 0% | pest or weed control at 250 g/ha [7]: 40%; pest or weed control at 15.625 g/ha [8]: 40%; pest or weed control at 62.5 g/ha [8]: 80%; pest or weed control at 250 g/ha [8]: 90%; pest or weed control at 15.625 g/ha [9]: 80%; pest or weed control at 62.5 g/ha [9]: 90%; pest or weed control at 250 g/ha [9]: 90%; pest or weed control at 15.625 g/ha [10]: 0%; pest or weed control at 62.5 g/ha [10]: 10%; pest or weed control at 250 g/ha [10]: 20%; plant injury at 15.625 g/ha (corn (Zea mays) [11]): 10%; plant injury at 62.5 g/ha (corn (Zea mays) [11]): 40%; plant injury at 250 g/ha (corn (Zea mays) [11]): 80%; pest or weed control at 15.625 g/ha [12]: 0%; pest or weed control at 62.5 g/ha [12]: 20%; pest or weed control at 250 g/ha [12]: 40%
2 | CN1C[C@H](c2cccc(C(F)(F)F)c2)[C@@H](C(=O)Nc2cc(C#N)ccn2)C1=O (racemic) [Compound 1735] | 0% | 0% | 0% | 0% | 0% | 0% | 0% | 0% | 0% | 0% | 0% | 0% | 0% | 0% | 0% | 0% | 0% | 0% | 0% | 0% | pest or weed control at 250 g/ha [7]: 0%; pest or weed control at 15.625 g/ha [8]: 0%; pest or weed control at 62.5 g/ha [8]: 0%; pest or weed control at 250 g/ha [8]: 0%; pest or weed control at 15.625 g/ha [9]: 0%; pest or weed control at 62.5 g/ha [9]: 0%; pest or weed control at 250 g/ha [9]: 0%; pest or weed control at 15.625 g/ha [10]: 0%; pest or weed control at 62.5 g/ha [10]: 0%; pest or weed control at 250 g/ha [10]: 0%; plant injury at 15.625 g/ha (corn (Zea mays) [11]): 0%; plant injury at 62.5 g/ha (corn (Zea mays) [11]): 0%; plant injury at 250 g/ha (corn (Zea mays) [11]): 0%; pest or weed control at 15.625 g/ha [12]: 0%; pest or weed control at 62.5 g/ha [12]: 0%; pest or weed control at 250 g/ha [12]: 0%
